Literature values in patent US20140234405A1 (priority 2013, published 2014).
No end group written: not given here.

Key:
[1] = tested on: beta cell mass; conditions: after infusion of gastrin in rats; cited from earlier work
[2] = tested on: human pancreatic ductal tissue; conditions: in vitro, without epidermal growth factor; cited from earlier work
[3] = tested on: gastrin; conditions: 90 mg/day for 6 years or greater; cited from earlier work
[4] = tested on: type 2 diabetes; conditions: 12 weeks, cited from earlier work

Molecule: gastrin: gastrointestinal hormone demonstrated to result in new beta cell formation (QGPWLEEEEEAYGWMDF; ends and bridges not checked; UniProt P01350 76-92, looked up)
- beta cell mass [1]: doubling beta cell mass
- beta cell neogenesis from human pancreatic ductal tissue [2]: induce beta cell neogenesis

Molecule: Cc1c(OCC(F)(F)F)ccnc1C[S+]([O-])c1nc2ccccc2[nH]1 (stereo not shown) [Lansoprazole, 1H-Benzimidazole,2-[[[3-methyl-4-(2,2,2-trifluoroethoxy)-2-pyridinyl]methyl]sulfinyl]-2-[[[3-Methyl-4-(2,2,2-trifluoroethoxy)-2-pyridyl]-methyl]sulfinyl]benzimidazole]
- gastrin levels relative to normal [3]: ~7 fold
- safety profile [3]: sustained safety profile

Molecule: COc1ccc2nc([S@@+]([O-])Cc3ncc(C)c(OC)c3C)[nH]c2c1 [esomeprazole]
- insulin secretion, glycaemic control, cardiovascular disease biomarkers ([4]; patients with type 2 diabetes): did not improve
- change in insulin AUC ([4]; control group had 16.3% reduction): no decline in insulin AUC
- increase in area under the curve (AUC) of gastrin ([4]; 20 type 2 diabetes patients, 40 mg): 9 fold
